The source made the active and inactive calls. The calls are words filed in the database; no cut-off is given here.

Data set [1] has as its system Danio rerio. Kind of data set: Cardioprotective activity against doxorubicin-induced Zebrafish cardiomyopathy model assessed as survival rate at 10 uM fertilized for 24 hrs followed by compound administration for 72 hrs and measured at 96 hrs post fertilization by inverted fluorescence microscopic analysis. The class given is functional.
The species entered for data set [2] is Danio rerio. The experiment in a line: Cardioprotective activity against doxorubicin-induced Tg(cmlc2: GFP) Zebrafish assessed as restoration of normal heart structure at 10 uM measured at 72 hrs post fertilization. The class given is functional, organism-based.
Data set [3] deals with Danio rerio. Kind of data set: Cardioprotective activity against doxorubicin-induced Zebrafish cardiomyopathy model at 5 to 15 uM fertilized for 24 hrs followed by compound administration for 72 hrs and measured at 96 hrs post fertilization by inverted fluorescence microscopic analysis. The note with it: dose 5-15 µM. The class given is functional, organism-based.
Data set [4] deals with Danio rerio. Kind of data set: Cardioprotective activity against doxorubicin-induced Tg(cmlc2: GFP) Zebrafish assessed as […] at 10 uM measured at 72 hrs post fertilization. The class given is functional, organism-based.
Data set [5] in a line: Toxicity in zebrafish embryos assessed as survival at upto 40 uM fertilized for 24 hrs followed by compound administration for 72 hrs and measured at 96 hrs post fertilization. The note with it: in vivo. On the set-up: species or system Danio rerio.
For data set [6], the species on record is Danio rerio. The experiment in a line: Cardioprotective activity against doxorubicin-induced Tg(cmlc2: GFP) Zebrafish assessed as reduction in cTnT mRNA level measured at 72 hrs post fertilization by qPCR analysis. The class given is functional, organism-based. The note with it: dose <= 5.0 µM. In general terms: Quantitative PCR measures a nucleic acid by following its amplification.

For data set [7], the species on record is Danio rerio. The experiment in a line: Cardioprotective activity against doxorubicin-induced Tg(cmlc2: GFP) Zebrafish assessed as reduction in Bnp mRNA level measured at 72 hrs post fertilization by qPCR analysis. The class given is functional, organism-based.
The species entered for data set [8] is Danio rerio. The experiment in a line: Cardioprotective activity against doxorubicin-induced Tg(cmlc2: GFP) Zebrafish assessed as reduction in Anp mRNA level measured at 72 hrs post fertilization by qPCR analysis. The class given is functional, organism-based. The conditions noted are these: dose <= 5.0 µM.
The subject of data set [9] is Danio rerio. Kind of data set: Cardioprotective activity against doxorubicin-induced Zebrafish cardiomyopathy model assessed as survival rate at 1 uM fertilized for 24 hrs followed by compound administration for 72 hrs and measured at 96 hrs post fertilization by inverted fluorescence microscopic analysis. The class given is functional.
For data set [10], the species on record is Danio rerio. The experiment in a line: Cardioprotective activity against doxorubicin-induced Tg(cmlc2: GFP) Zebrafish assessed as restoration of normal heart structure at 1 uM measured at 72 hrs post fertilization. The class given is functional, organism-based.
Data set [11] concerns Danio rerio. Kind of data set: Cardioprotective activity against doxorubicin-induced Tg(cmlc2: GFP) Zebrafish assessed as […] at 1 uM measured at 72 hrs post fertilization. The class given is functional, organism-based.
The subject of data set [12] is Danio rerio. Kind of data set: Cardioprotective activity against doxorubicin-induced Tg(cmlc2: GFP) Zebrafish assessed as […] at 60 uM measured at 72 hrs post fertilization. The class given is functional, organism-based.
In data set [13] the test system is Danio rerio. Kind of data set: Cardioprotective activity against doxorubicin-induced Zebrafish cardiomyopathy model assessed as survival rate at 40 uM fertilized for 24 hrs followed by compound administration for 72 hrs and measured at 96 hrs post fertilization by inverted fluorescence microscopic analysis. The class given is functional.
The species named for data set [14] is Danio rerio. The experiment in a line: Cardioprotective activity against doxorubicin-induced Tg(cmlc2: GFP) Zebrafish assessed as restoration of normal heart structure at 60 uM measured at 72 hrs post fertilization. The class given is functional, organism-based.
Data set [15] relates to Danio rerio. The experiment in a line: Cardioprotective activity against doxorubicin-induced Zebrafish cardiomyopathy model assessed as survival rate at 60 uM fertilized for 24 hrs followed by compound administration for 72 hrs and measured at 96 hrs post fertilization by inverted fluorescence microscopic analysis. The class given is functional.
The nature of data set [16]: Water solubility of the compound measured for 24 hrs by HPLC analysis. The class given is physicochemical.
The test system of data set [17] is Mus musculus. The experiment in a line: Cardioprotective activity against doxorubicin-induced C57BL/6 mouse cardiomyopathy model assessed as increase in cardiac output at 2.5 mg/kg, ip administered for 7 days by Echocardiography analysis. The class given is functional. The note with it: time 7 day.
The subject of data set [18] is Mus musculus. The experiment in a line: Cardioprotective activity against doxorubicin-induced C57BL/6 mouse cardiomyopathy model assessed as increase in ejection fraction at 2.5 mg/kg, ip administered for 7 days by Echocardiography analysis. The class given is functional. The note with it: time 7 day.
For data set [19], the system named is Mus musculus. The experiment in a line: Cardioprotective activity against doxorubicin-induced C57BL/6 mouse cardiomyopathy model assessed as increase in fractional shortening at 2.5 mg/kg, ip administered for 7 days by Echocardiography analysis. The class given is functional. The conditions noted are these: time 7 day.
The nature of data set [20]: Toxicity in Tg(cmlc2: GFP) Zebrafish assessed as mortality at 450 uM measured at 72 hrs post fertilization. The note with it: in vivo. On the set-up: species or system Danio rerio.
The subject of data set [21] is Mus musculus. Kind of data set: Cardioprotective activity against doxorubicin-induced C57BL/6 mouse cardiomyopathy model assessed as increase in heart weight to tibia length ratio at 2.5 mg/kg, ip administered for 7 days by Echocardiography analysis. The class given is functional. The conditions noted are these: time 7 day.

As to `C[C@@]12CC[C@@H]3[C@@](CC[C@H]4[C@@]3(C)CCC[C@@]4(C)C(=O)O)(CC1=O)C2` [ISOSTEVIOL], the survival at 10 µM in the data set on Danio rerio [1] is 43%. Further, the outcome in the data set filed under Danio rerio [2], in the data set with Danio rerio [3] and in the data set with Danio rerio [4] was Active. Moreover, the Activity entry in data set [5] was “Non-Toxic”.
For the molecule `Cc1ccc(C(=O)O)c(C(=O)N2CCN(C(=O)[C@]3(C)CCC[C@@]4(C)[C@@H]5CC[C@@]6(C)C[C@]5(CC[C@@H]43)CC6=O)CC2)c1`, the Activity entry in data set [5] was “Non-Toxic”; in the data set listed under Danio rerio [6], “Dose-Dependent Effect”; in the data set filed under Danio rerio [7], “Dose-Dependent Effect”; in the data set filed under Danio rerio [8], “Dose-Dependent Effect”. For the same molecule, the survival at 1 µM in the data set with Danio rerio [9] stood at 90%. Also, the result in the data set filed under Danio rerio [10] and with Danio rerio [11] was Active.
As to `C[C@@H]1CC(=O)NN=C1c1ccc(NN=C(C#N)C#N)cc1` [LEVOSIMENDAN], the result in the data set on Danio rerio [12] and in the data set listed under Danio rerio [14] was Active. The survival at 40 µM in the data set on Danio rerio [13] stood at 75%. The survival at 60 µM in the data set with Danio rerio [15] was 84%.
Take `C[C@@]12CC[C@@H]3[C@@](CC[C@H]4[C@@]3(C)CCC[C@@]4(C)C(=O)N3CCN(C(=O)c4ccccc4C(=O)[O-])CC3)(CC1=O)C2.[Na+]`: in data set [16], the solubility (in general, the dissolved amount per volume that the medium holds) at 24 h was determined as 54 mg/mL. For the same molecule, the Activity was 10% with Mus musculus [17], 59.8% in the data set on Mus musculus [18], 31.3% in the data set on Mus musculus [19] and “Non-Toxic” in [20]. In addition, the Ratio in the data set with Mus musculus [21] amounted to 6.3 mg/mm.
